Data taken from US20260109674A1, “ALLOSTERIC MODULATION OF MUSCARINIC ACETYLCHOLINE RECEPTOR EFFICACY” (The University of Toledo, priority 2022, published 2026).

Legend:
[1] = test system: wild-type zebrafish larvae; experiment: Maximum tolerated concentration (MTC) determination in zebrafish larvae; format: in vivo, Danio rerio; conditions: after 24-hour exposure; Table 3
Experimental: Determination of maximum tolerated concentration was completed by placing 5 days post fertilization (dpf) wild-type zebrafish larvae in a 24 well plate at 6 fish per well, and one compound concentration per well. […] Death was determined by the absence of heartbeat. Additional endpoints were used to assess toxicity at non-lethal concentrations such as startle capacity (poke stimulus), abnormalities in swimming behavior (loss of dorsoventral balance), and gross morphological deformities (bent body). […] The MTC determination was used to select three doses of each compound (low, medium, high dose) to be used in behavioral assays.

[2] = target: T1, M1 muscarinic receptors expressed in CHO cells (Homo sapiens, UniProt P11229); experiment: [3H]-arachidonic acid release screen with and without ACh and modulator; format: cell-based; conditions: for Ratio of response of ACh with modulator to response of ACh alone, 0.1 μM ACh / Ratio of response of ACh with modulator to response of ACh alone, 100 μM ACh / Stimulation of [3H]AA release, No ACh (fraction of stimulation above the control): 10 μM modulator
T1 construct: expressed in transfected cells; host or cells: CHO (CHO-hM1, stably transfected)
T1 sequence (P11229 1-460): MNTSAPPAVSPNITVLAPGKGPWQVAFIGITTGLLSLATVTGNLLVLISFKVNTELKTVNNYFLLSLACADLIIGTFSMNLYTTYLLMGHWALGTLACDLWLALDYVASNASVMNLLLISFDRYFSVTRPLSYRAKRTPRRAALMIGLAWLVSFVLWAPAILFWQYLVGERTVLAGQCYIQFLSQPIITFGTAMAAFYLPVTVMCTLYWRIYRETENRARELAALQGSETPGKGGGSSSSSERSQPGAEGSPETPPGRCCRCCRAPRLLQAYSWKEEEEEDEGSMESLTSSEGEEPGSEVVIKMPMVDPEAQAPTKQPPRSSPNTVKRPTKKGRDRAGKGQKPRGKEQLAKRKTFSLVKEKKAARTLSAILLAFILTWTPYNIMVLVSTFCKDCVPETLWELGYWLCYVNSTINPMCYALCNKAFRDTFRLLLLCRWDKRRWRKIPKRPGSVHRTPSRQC
Experimental: CHO cells expressing human M1 muscarinic receptors were cultured at 37° C. in a 5% CO2 atmosphere in F12 medium supplemented with 5% fetal bovine serum, 100 units/mL penicillin, and 100 μg/mL streptomycin.
Measurement of [^3H]AA release was performed. Stably transfected CHO-hM1 or CHO-hM3 cells were seeded on 24-well plates (Greiner Bio-One GmbH, Frickenhausen, Germany) at a density of 5.0×10^4 cells/well in 0.5 ml of F-12 medium. Cells were incubated until they attached (approximately 3 h), followed by the addition of [^3H]AA to a final concentration of 0.05 μCi of [^3H]AA per well. The cells were then grown for 16 to 20 h before the assay was performed. [^3H]AA release was measured in Eagle's basal medium with 20 mM HEPES and 2 mg/ml fatty acid-free bovine serum albumin (EM-BSA). Cells were rinsed twice with EM-BSA, followed by the addition of EM-BSA media containing experimental agents and incubated for 1 h at 37° C. The assay was terminated by aspiration of the media, and the amount of [^3H]AA released was determined by liquid scintillation counting (Beckman-Coulter LS6500).
For some assays, pretreatment with phenoxybenzamine (POB) was employed, as indicated, to reduce the number of available receptors per cell. Stock POB was made up at 10 mM in ethanol and stored at −20° C. Each well was pretreated with 0.5 ml of the appropriate concentration in PBS with 1 mM CaCl2 and 1 mM MgCl2 (PBS++) for 30 min at 37° C., followed by 5 washes with PBS++. After pretreatment, the normal protocol was followed as above.
Tabulated [^3H]AA release data are represented as a fraction of maximal release in the presence of 100 μM ACh or as the fraction of release elicited by the appropriate concentration of ACh alone, as indicated dose-response curves were normalized to the maximal response of ACh without allosteric ligand. Some response curves were analyzed using the empirical four-parameter equation: […]
Disintegration per minute (DPM) values for a single compound were obtained in triplicate, and each compound was evaluated on three separate 24-well plates. The mean values for each condition from each of the three 24-well plates were used for the statistical analysis. The baseline mean was subtracted from each value, then normalized to the mean response produced by 100 μM ACh (set at 1.0). Statistical analyses were completed on the normalized values via one-way repeated measures ANOVA with Tukey's post hoc test. Statistically significant differences are noted as follows: *, p<0.05; **, p<0.01; ***, p<0.001.

Row | SMILES | Maximum Tolerated Concentration [1] [µM] | Ratio of response of ACh with modulator to response of ACh alone, 0.1 μM ACh ([2]; Table 1) | Ratio of response of ACh with modulator to response of ACh alone, 100 μM ACh ([2]; Table 1) | Stimulation of [3H]AA release, No ACh (fraction of stimulation above the control) ([2]; Table 1) | Modulation of ACh activity (in words) ([2]; [3H]AA release, modulator 10 μM) | Ratio of response of ACh with modulator to response of ACh alone, 0.1 μM ACh ([2]; Table 4, N = 4-5) | Ratio of response of ACh with modulator to response of ACh alone, 100 μM ACh ([2]; Table 4, N = 4-5) | Stimulation of [3H]AA release, No ACh (fraction of stimulation above the control) ([2]; Table 4, N = 4-5)
1 | CCCCc1oc2ccccc2c1C(=O)c1ccc(OCCN(CC)CC)cc1 [Compound 6c, (2-butylbenzofuran-3-yl)(4-(2-(diethylamino)ethoxy)phenyl)methanone] | 3 | 0.46 ± 0.17 | 1.05 ± 0.05 | 0.05 ± 0.04 | decreased ACh activity | – | – | –
2 | COc1ccc(CN2C(=O)C(=O)c3ccccc32)cc1I [Compound 8b, 1-(3-iodo-4-methoxybenzyl)indoline-2,3-dione] | 10 | 1.81 ± 0.04 | 1.24 ± 0.01 | 0.08 ± 0.01 | – | – | – | –
3 | COc1ccc(CN2C(=O)C(=O)c3ccccc32)cc1Br [Compound 8d, 1-(3-bromo-4-methoxybenzyl)indoline-2,3-dione] | 100 | 1.31 ± 0.06 | 0.87 ± 0.01 | 0.04 ± 0.01 | – | – | – | –
4 | COc1c(Cl)cc(CN2C(=O)C(=O)c3ccccc32)cc1Cl [Compound 8e, 1-(3,5-dichloro-4-methoxybenzyl)indoline-2,3-dione] | 100 | 2.13 ± 0.11 | 1.28 ± 0.07 | 0.08 ± 0.01 | – | – | – | –
5 | COc1ccc(CN2C(=O)C(=O)c3ccccc32)cc1Cl [Compound 8f, 1-(3-chloro-4-methoxybenzyl)indoline-2,3-dione] | 10 | 1.49 ± 0.03 | 1.13 ± 0.04 | 0.08 ± 0.02 | – | – | – | –
6 | COc1c(I)cc(Cn2cc(C(=O)O)c(=O)c3ccccc32)cc1I [GK-1-47] | – | – | – | – | – | 2.46 ± 0.13 | 1.33 ± 0.04 | 0.24 ± 0.01
7 | O=C1C(=O)N(Cc2ccc(Br)cc2)c2ccccc21 [VU0119498, reference compound] | – | 1.22 ± 0.34 | 1.04 ± 0.07 | 0.07 ± 0.00 | – | – | – | –
